The record followed here is EP3827825A1, “USE OF 3, 4-DIARYLPYRAZOLES AS ANTIBACTERIAL AGENTS” (Wageningen Universiteit, priority 2019, dated 2021).

SMILES strings stand for the structures. In brackets after ≈: the same amount, converted by molar mass. Like-named read-outs stand apart in the source and are kept apart here.

The test system of one assay is S. aureus Newman. Kind of assay: Minimal inhibitory concentration (MIC), double-dilution in broth, OD600. The class given is cell-based, Staphylococcus aureus Newman. The settings on record: unit assumed. The essentials: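 Twofold broth dilution series of compound from a DMSO stock, against S. aureus Newman from a 1:100-diluted overnight culture. Plates were incubated for 24 hours, then read at OD600. The MIC is the lowest concentration showing no growth.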

The next assay deals with S. suis. The assay is described as above. It counts as cell-based, Streptococcus suis. The settings on record: unit assumed. The essentials:
(§1)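 MICs came from two-fold broth dilutions from 5 mg/mL DMSO stocks, with 100-fold-diluted overnight cultures incubated overnight/24 h; growth was read at OD600 and the MIC taken as the lowest concentration without growth. For M. marinum, Middlebrook 7H9 broth was used with 3 days at 30 °C.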

A further assay concerns P. multocida. Described as above. It counts as cell-based, Pasteurella multocida. The settings on record: unit assumed. The essentials: as §1
Another assay deals with M. marinum. Kind of assay: Minimal inhibitory concentration (MIC), Middlebrook 7H9 broth, 3 days at 30 °C. To be noted: unit assumed. It counts as cell-based, Mycobacterium marinum. Put shortly: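 Read-out was OD600 after 24 h incubation, with MIC defined as the lowest compound concentration showing no visible growth. Plates held twofold broth dilutions from 50 µg/mL, seeded with 100-fold diluted overnight cultures. For M. marinum, 7H9 broth and 3 days at 30 °C applied.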

The subject of the next assay is E. coli JW5503. The class given is cell-based, Escherichia coli. To be noted: unit assumed. The essentials:
as §1

For another assay, the system named is E. faecium Van A. Kind of assay: Minimal inhibitory concentration (MIC), double-dilution in broth, OD600. To be noted: unit assumed. The class given is cell-based, Enterococcus faecium. Put shortly: as §1
A further assay relates to HEK293. Briefly: Cell toxicity, Alamar blue assay, 24 hours exposure. The class given is cell-based. To be noted: for IC50: Homo sapiens. The essentials:
(§2)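 NRK-52E or HEK293 cells were exposed for 24 h to compounds (0.39–500 µg/mL, serum-free medium), mostly in single measurement. After compound removal, resazurin conversion to fluorescent resorufin over 45 min indicated viable cells.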

Another assay relates to NRK-52E. The description is as above. It counts as cell-based. To be noted: for IC50: Rattus norvegicus, read-out: IC50 NRK-52E (50 mg/mL stock). Put shortly: as §2
The mark [1] stands for this setting: HEK293, read-out: IC50 HEK293 (5 mg/mL stock).
Where [2] appears, read: HEK293, read-out: IC50 HEK293 (50 mg/mL stock).

For `CCOc1ccc(-c2[nH]nc(C(F)(F)F)c2-c2ccc(Cl)cc2)c(O)c1` [May-27, 2-[4-(4-chlorophenyl)-5-(trifluoromethyl)-1∼{H}-pyrazol-3-yl]-5-ethoxy-phenol], the MIC S. aureus Newman in the assay with S. aureus Newman turned out to be 3.13 µg/mL (≈ 8.18 µM). Moreover, the MIC S. suis in the assay on S. suis is 3.13 µg/mL (≈ 8.18 µM). Moreover, the MIC P. multocida in the assay with P. multocida came to 25 µg/mL (≈ 65.3 µM). For the same compound, the MIC M. marinum in the assay with M. marinum was 50 µg/mL (≈ 131 µM). For the same compound, the MIC E. coli JW5503 against E. coli JW5503 amounted to 3.13 µg/mL (≈ 8.18 µM). The MIC E. faecium Van A in the assay on E. faecium Van A amounted to 3.13 µg/mL (≈ 8.18 µM). Besides, the figures for the IC50 with HEK293 (setting [1]), with HEK293 (setting [2]) and in the assay on NRK-52E were 10.8 µg/mL (≈ 28.3 µM), 118 µg/mL (≈ 309 µM) and 181 µg/mL (≈ 472 µM), respectively.
`CCOc1cc(O)c(-c2n[nH]c(C(F)(F)F)c2-c2ccccc2)cc1CC` [Sep-2, 5-ethoxy-4-ethyl-2-[4-phenyl-5-(trifluoromethyl)-1∼{H}-pyrazol-3-yl]phenol]: the MIC S. aureus Newman with S. aureus Newman is 6.25 µg/mL (≈ 16.6 µM). The compound also registered an MIC S. suis in the assay on S. suis of 25 µg/mL (≈ 66.4 µM). Further, the MIC P. multocida with P. multocida is > 50 µg/mL. Also, in the assay with M. marinum, the MIC M. marinum was > 50 µg/mL. For the same compound, in the assay with E. coli JW5503, the MIC E. coli JW5503 amounted to 25 µg/mL (≈ 66.4 µM). Besides, in the assay with E. faecium Van A, the MIC E. faecium Van A turned out to be 25 µg/mL (≈ 66.4 µM). The IC50 in the assay with HEK293 (setting [1]) was 3.97 µg/mL (≈ 10.5 µM); in the assay with NRK-52E, ~17.4 µg/mL (≈ 46.2 µM).
`C=C(C)COc1ccc(-c2[nH]nc(C(F)(F)F)c2-c2ccccc2)c(O)c1` [Sep-9, 5-(2-methylallyloxy)-2-[4-phenyl-5-(trifluoromethyl)-1∼{H}-pyrazol-3-yl]phenol] gave an MIC S. aureus Newman in the assay with S. aureus Newman of 6.25 µg/mL (≈ 16.7 µM). This compound also registered an MIC S. suis in the assay on S. suis of 25 µg/mL (≈ 66.8 µM). In the assay with P. multocida, this compound had an MIC P. multocida of 50 µg/mL (≈ 134 µM). The MIC M. marinum in the assay on M. marinum is > 50 µg/mL. Moreover, the MIC E. coli JW5503 against E. coli JW5503 amounted to 6.25 µg/mL (≈ 16.7 µM). For the same compound, the MIC E. faecium Van A in the assay with E. faecium Van A was 0.78 µg/mL (≈ 2.08 µM). For the same compound, the IC50 in the assay on HEK293 (setting [1]) was 16.1 µg/mL (≈ 43.1 µM); in the assay with NRK-52E it was ~10.9 µg/mL (≈ 29 µM).
The compound `Oc1cc(OCc2ccc(Br)cc2)ccc1-c1n[nH]c(C(F)(F)F)c1-c1ccc(Cl)cc1` [Sep-13, 5-(4-bromobenzyl)oxy-2-[4-(4-chlorophenyl)-5-(trifluoromethyl)-1∼{H}-pyrazol-3-yl]phenol] registered an MIC S. aureus Newman in the assay with S. aureus Newman of 1.56 µg/mL (≈ 2.98 µM). For the same compound, the MIC S. suis in the assay with S. suis was determined as 6.25 µg/mL (≈ 11.9 µM). Moreover, the MIC P. multocida in the assay on P. multocida is > 50 µg/mL. Further, the MIC M. marinum against M. marinum came out at 25 µg/mL (≈ 47.7 µM). Moreover, in the assay with E. coli JW5503, the MIC E. coli JW5503 is > 50 µg/mL. In addition, the MIC E. faecium Van A against E. faecium Van A was 12.5 µg/mL (≈ 23.9 µM). Also, in the assay on HEK293 (HEK293, 5 mg/mL stock), the “IC50 HEK293 (5 mg/mL stock)” value was 16.51. Also, the “IC50 NRK-52E (50 mg/mL stock)” value in the assay with NRK-52E (50 mg/mL stock) is on record as 10.89.
`Oc1cc(OCc2ccccc2Cl)ccc1-c1n[nH]c(C(F)(F)F)c1-c1ccc(Cl)cc1` [Sep-25, 5-(2-chlorobenzyl)oxy-2-[4-(4-chlorophenyl)-5-(trifluoromethyl)-1∼{H}-pyrazol-3-yl]pheno] came in with an MIC S. aureus Newman with S. aureus Newman of 3.13 µg/mL (≈ 6.53 µM). In the assay on S. suis, the MIC S. suis was 12.5 µg/mL (≈ 26.1 µM). Also, in the assay on P. multocida, the MIC P. multocida is > 50 µg/mL. This compound showed an MIC M. marinum with M. marinum of 50 µg/mL (≈ 104 µM). For the same compound, the MIC E. coli JW5503 in the assay with E. coli JW5503 was > 50 µg/mL. This compound showed an MIC E. faecium Van A with E. faecium Van A of 12.5 µg/mL (≈ 26.1 µM). For the same compound, the IC50 with HEK293 (setting [1]) came to 19.3 µg/mL (≈ 40.2 µM); with HEK293 (setting [2]), 18.1 µg/mL (≈ 37.7 µM); in the assay on NRK-52E, 17.3 µg/mL (≈ 36 µM).
Regarding `C=C(C)COc1ccc(-c2[nH]nc(C(F)(F)F)c2-c2ccc(Cl)cc2)c(O)c1` [Sep-29, 2-[4-(4-chlorophenyl)-5-(trifluoromethyl)-1∼{H}-pyrazol-3-yl]-5-(2-methylallyloxy)phenol], in the assay on S. aureus Newman, the MIC S. aureus Newman is 3.13 µg/mL (≈ 7.66 µM). Also, the MIC S. suis against S. suis came out at 12.5 µg/mL (≈ 30.6 µM). The MIC P. multocida with P. multocida is > 50 µg/mL. For the same compound, the MIC M. marinum with M. marinum is > 50 µg/mL. In addition, in the assay on E. coli JW5503, the MIC E. coli JW5503 amounted to 12.5 µg/mL (≈ 30.6 µM). The MIC E. faecium Van A with E. faecium Van A came out at 6.25 µg/mL (≈ 15.3 µM). In addition, the values for the IC50 in the assay with HEK293 (setting [1]) and in the assay with NRK-52E were 16.4 µg/mL (≈ 40.1 µM) and 19.9 µg/mL (≈ 48.7 µM), respectively.
